Assay results as given in ChEMBL document CHEMBL1127247, “Isoarecolones and arecolones: selective central nicotinic agonists that cross the blood-brain barrier” (Bioorg Med Chem Lett, 1994).
pKi: −log10 of the molar value.

Columns and labels:
[1] = target: Neuronal acetylcholine receptor; assay: Binding affinity for Nicotinic acetylcholine receptor site in rat cortex was determined using [3H]MCC as radioligand
[2] = Selectivity for nicotinic agonist activity was determined between Ki for [3H]-OXO-M and to that for [3H]MCC; assay type: functional
[3] = target: Muscarinic acetylcholine receptor; assay: Binding affinity for muscarinic receptor site in rat hippocampus was determined using competitive radioligand binding assays employing [3H]OXO-M; assay type: tissue-based
Rattus norvegicus [4] = organism: Rattus norvegicus; assay: (§1) Effect of compound on accumulation of dopamine metabolite dihydroxyphenyl acetic acid (DOPAC) in nucleus accumbens; assay type: functional
Rattus norvegicus [5] = organism: Rattus norvegicus; assay: (§2) Effect of compound on accumulation of homovanillic acid (HVA) in nucleus accumbens; assay type: functional
Rattus norvegicus [6] = organism: Rattus norvegicus; assay: as §2; assay type: functional, organism-based
Rattus norvegicus [7] = organism: Rattus norvegicus; assay: (§3) Effect of compound on accumulation of dopamine metabolite dihydroxyphenyl acetic acid (DOPAC) in rat striatum; assay type: functional, organism-based
Rattus norvegicus [8] = organism: Rattus norvegicus; assay: as §3; assay type: functional
Rattus norvegicus [9] = organism: Rattus norvegicus; assay: (§4) Effect of compound on accumulation of homovanillic acid (HVA) in rat striatum; assay type: functional, organism-based
Rattus norvegicus [10] = organism: Rattus norvegicus; assay: as §1; assay type: functional, organism-based
Rattus norvegicus [11] = organism: Rattus norvegicus; assay: as §4; assay type: functional

For `CN1CCC=C(C(=O)Cc2ccccc2)C1`, the pKi [1] was 6.91, the Selectivity [2] was 15 and the Ki [3] was 1885 nM.
For `CCCCC(=O)C1=CCN(C)CC1`, the pKi [1] was 6.83, the Selectivity [2] was 29 and the Ki [3] was 4345 nM.
Work on `CN1CCC[C@H]1c1cccnc1` [NICOTINE] yielded a Control (Rattus norvegicus [4]) of 144%, a Control (Rattus norvegicus [5]) of 157% and a Concentration (Rattus norvegicus [6]) of 0.86 nM/g. The Concentration (Rattus norvegicus [7]) was 2.18 nM/g, the Control (Rattus norvegicus [8]) was 140% and the Concentration (Rattus norvegicus [9]) was 134 nM/g. For the same molecule, the Concentration (Rattus norvegicus [10]) was 2 nM/g and the Control (Rattus norvegicus [11]) was 151%.
Work on `CC(=O)C1=CCN(C)CC1` yielded a pKi [1] of 7.32, a Selectivity [2] of 112 and a Ki [3] of 5425 nM.
With `CN1CC=C(C(=O)c2ccccc2)CC1` the pKi [1] was 6.12, the Selectivity [2] was 5 and the Ki [3] was 3750 nM.
Molecule `CC#CC(=O)C1=CCN(C)CC1` has a Control (Rattus norvegicus [4]) of 120%, a pKi [1] of 7.66 and a Selectivity [2] of 122. It also gave a Control (Rattus norvegicus [5]) of 132%, a Ki [3] of 2690 nM and a Concentration (Rattus norvegicus [6]) of 0.73 nM/g. The Concentration (Rattus norvegicus [7]) was 1.91 nM/g, the Control (Rattus norvegicus [8]) was 123% and the Concentration (Rattus norvegicus [9]) was 1.25 nM/g. The Concentration (Rattus norvegicus [10]) was 1.66 nM/g and the Control (Rattus norvegicus [11]) was 140%.
For `CCC(=O)C1=CCN(C)CC1`, the pKi [1] was 7.59, the Selectivity [2] was > 195 and the Ki [3] was > 5000 nM.
`CN1CC=C(C(=O)Cc2ccccc2)CC1` showed a pKi [1] of 6.02, a Selectivity [2] of 4 and a Ki [3] of 3500 nM.
In the case of `CN1CCC=C(C(=O)c2ccccc2)C1`, the pKi [1] was 6.75, the Selectivity [2] was 14 and the Ki [3] was 2450 nM.
`CCCC(=O)C1=CCCN(C)C1` showed a pKi [1] of 7.88, a Selectivity [2] of 208 and a Ki [3] of 2730 nM.
With `CCCC(=O)C1=CCN(C)CC1` the pKi [1] was 7.17, the Selectivity [2] was > 74 and the Ki [3] was > 5000 nM.
Molecule `CN1CC=C(C(=O)C(C)(C)C)CC1` has a pKi [1] of 7.25, a Selectivity [2] of 110 and a Ki [3] of 6250 nM.
Molecule `CCC(=O)C1=CCCN(C)C1` [ARECOLON] has a pKi [1] of 8.24, a Selectivity [2] of 336 and a Ki [3] of 1950 nM.
Work on `CCCCC(=O)C1=CCCN(C)C1` yielded a pKi [1] of 7.21, a Selectivity [2] of 23 and a Ki [3] of 1385 nM.
For `CC(=O)C1=CCCN(C)C1`, the pKi [1] was 7.49, the Selectivity [2] was 134 and the Ki [3] was 4380 nM.
With `COC(=O)C1=CCCN(C)C1` [ARECOLINE] the pKi [1] was 6.65.
For `CC#CC(=O)C1=CCCN(C)C1`, the Control (Rattus norvegicus [4]) was 129%, the pKi [1] was 8.24 and the Selectivity [2] was 284. It also gave a Control (Rattus norvegicus [5]) of 159%, a Ki [3] of 1650 nM and a Concentration (Rattus norvegicus [6]) of 0.88 nM/g. For the same molecule, the Concentration (Rattus norvegicus [7]) was 1.8 nM/g, the Control (Rattus norvegicus [8]) was 115% and the Concentration (Rattus norvegicus [9]) was 1.21 nM/g. It also gave a Concentration (Rattus norvegicus [10]) of 1.79 nM/g and a Control (Rattus norvegicus [11]) of 135%.
